Laboratory results published in PMC8786250, “Comparison of chemical profiles, antioxidation, inhibition of skin extracellular matrix degradation, and anti-tyrosinase activity between mycelium and fruiting body of Cordyceps militaris and Isaria tenuipes” (Pharmaceutical Biology, 2022).
In brackets after ≈: the same amount, converted by molar mass.

Tests used:
[1] = molecular target: T1, elastase from porcine pancreas (Sus scrofa, UniProt P00772); test: spectrophotometric elastase inhibition assay; type: biochemical; conditions: read-out: IC50 (mg/mL) / Elastase inhibition (converted)
T1 construct: gene CELA1; native enzyme from pancreas, lyophilised powder (Sigma-Aldrich); mature form
T1 sequence (P00772 27-266): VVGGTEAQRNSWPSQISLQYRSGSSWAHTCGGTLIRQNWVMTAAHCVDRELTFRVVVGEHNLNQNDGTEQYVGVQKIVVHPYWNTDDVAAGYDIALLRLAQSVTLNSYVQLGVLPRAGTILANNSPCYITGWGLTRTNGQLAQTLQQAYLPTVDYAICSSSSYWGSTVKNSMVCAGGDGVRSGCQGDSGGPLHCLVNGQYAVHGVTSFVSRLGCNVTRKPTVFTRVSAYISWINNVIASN
Description: spectrophotometric elastase inhibition assay on elastase from porcine pancreas

[2] = molecular target: T2, metalloproteinase-1 (MMP-1) from Clostridium histolyticum (ChC); test: spectrophotometric MMP-1 (collagenase) inhibition assay; type: biochemical, Hathewaya histolytica; conditions: substrate FALGPA; positive control
T2 construct: gene colG; native collagenase preparation (Sigma-Aldrich)
Description: spectrophotometric MMP-1 (collagenase) inhibition assay on metalloproteinase-1 (MMP-1) from Clostridium histolyticum (ChC)

| Structure (SMILES) | IC50 [1] | IC50 (mg/mL) / MMP-1 inhibition [2] |
| --- | --- | --- |
| O=C(O[C@@H]1Cc2c(O)cc(O)cc2O[C@@H]1c1cc(O)c(O)c(O)c1)c1cc(O)c(O)c(O)c1 [EGCG, epigallocatechin gallate] | 2.18 µM | – |
| CC1(C)CC[C@]2(C(=O)O)CC[C@]3(C)C(=CC[C@@H]4[C@@]5(C)CC[C@H](O)C(C)(C)[C@@H]5CC[C@]43C)[C@@H]2C1 [OA, oleanolic acid] | – | 0.002 ± 0.000 mg/mL (≈ 4.38 µM) |
